PubChem BioAssay (NCI)
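Step 1: Grow cells in 96-well plates. Step 2: Expose to compound for 48 hours at 5 concentrations. Step 3: Interpolate endpoints linearly; if unreached, use highest concentration. At the GI50, growth is halved. Definition used: TGI = concentration required for complete inhibition of growth.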

Columns and labels:
Experiment in all cases: growth of human tumour cells (NCI), 48 h
[1] = test system: 786-0 renal
[2] = test system: A498 renal
[3] = test system: A549 NSCLC
[4] = test system: ACHN renal
[5] = test system: BT-549 breast
[6] = test system: CAKI-1 renal
[7] = test system: COLO 205 colon
[8] = test system: DU-145 prostate
[9] = test system: EKVX NSCLC
[10] = test system: HCC-2998 colon
[11] = test system: HCT-116 colon
[12] = test system: HCT-15 colon
[13] = test system: HL-60(TB) leukemia
[14] = test system: HOP-62 NSCLC
[15] = test system: HOP-92 NSCLC
[16] = test system: HS 578T breast
[17] = test system: HT29 colon
[18] = test system: IGROV1 ovarian
[19] = test system: K-562 leukemia
[20] = test system: KM12 colon
[21] = test system: LOX IMVI melanoma
[22] = test system: M14 melanoma
[23] = test system: MALME-3M melanoma
[24] = test system: MCF7 breast
[25] = test system: MDA-MB-231 breast
[26] = test system: MDA-MB-435
[27] = test system: MOLT-4 leukemia
[28] = test system: NCI-H226 lung
[29] = test system: NCI-H23 lung
[30] = test system: NCI-H460 lung
[31] = test system: NCI-H522 lung
[32] = test system: NCI/ADR-RES ovarian
[33] = test system: OVCAR-3 ovarian
[34] = test system: OVCAR-4 ovarian
[35] = test system: OVCAR-5 ovarian
[36] = test system: OVCAR-8 ovarian
[37] = test system: PC-3 prostate
[38] = test system: RPMI-8226 leukemia
[39] = test system: RXF 393 renal
[40] = test system: SF-268 CNS
[41] = test system: SF-295 CNS
[42] = test system: SF-539 CNS
[43] = test system: SK-MEL-2 melanoma
[44] = test system: SK-MEL-28 melanoma
[45] = test system: SK-MEL-5 melanoma
[46] = test system: SK-OV-3 ovarian
[47] = test system: SN12C renal
[48] = test system: SNB-19 CNS
[49] = test system: SNB-75 CNS
[50] = test system: SR leukemia
[51] = test system: SW-620 colon
[52] = test system: T-47D breast
[53] = test system: TK-10 renal
[54] = test system: U251 CNS
[55] = test system: UACC-257 melanoma
[56] = test system: UACC-62 melanoma
[57] = test system: UO-31 renal

CCCCCCC1CCCCN1C(c1ccccc1)C(O)c1ccccc1 (centres undefined)
GI50 [1]: 3.97 µM
TGI [1]: 13.6 µM
GI50 [2]: 11.1 µM
TGI [2]: 23.5 µM
GI50 [3]: 7.62 µM
TGI [3]: 21.4 µM
GI50 [4]: 10 µM
TGI [4]: 21.6 µM
GI50 [5]: 10.4 µM
TGI [5]: 22.4 µM
GI50 [6]: 3.72 µM
TGI [6]: 14.6 µM
GI50 [7]: 3.09 µM
TGI [7]: 11.4 µM
GI50 [8]: 8.34 µM
TGI [8]: 20.7 µM
GI50 [9]: 5.87 µM
TGI [9]: 21.3 µM
GI50 [10]: 3.65 µM
TGI [10]: 10.4 µM
GI50 [11]: 3.11 µM
TGI [11]: 11.7 µM
GI50 [12]: 5.39 µM
TGI [12]: 18.1 µM
GI50 [13]: 3.01 µM
TGI [13]: 7.01 µM
GI50 [14]: 10.3 µM
TGI [14]: 22.5 µM
GI50 [15]: 2840 nM
TGI [15]: 9.05 µM
GI50 [16]: 6.68 µM
TGI [16]: 21.1 µM
GI50 [17]: 3.09 µM
TGI [17]: 12.2 µM
GI50 [18]: 8.62 µM
TGI [18]: 22 µM
GI50 [19]: 4.23 µM
TGI [19]: 21.7 µM
GI50 [20]: 6.07 µM
TGI [20]: 19.4 µM
GI50 [21]: 3.04 µM
TGI [21]: 12.4 µM
GI50 [22]: 2950 nM
TGI [22]: 11.4 µM
GI50 [23]: 5.37 µM
TGI [23]: 19.7 µM
GI50 [24]: 3.78 µM
TGI [24]: 14.8 µM
GI50 [25]: 6.79 µM
TGI [25]: 20.3 µM
GI50 [26]: 4.71 µM
TGI [26]: 19.2 µM
GI50 [27]: 4.96 µM
TGI [27]: 19.4 µM
GI50 [28]: 7.74 µM
TGI [28]: 21.9 µM
GI50 [29]: 6.33 µM
TGI [29]: 20.9 µM
GI50 [30]: 3.92 µM
TGI [30]: 13.6 µM
GI50 [31]: 5.1 µM
TGI [31]: 18.5 µM
GI50 [32]: 10.1 µM
TGI [32]: 22.9 µM
GI50 [33]: 8.49 µM
TGI [33]: 20.8 µM
GI50 [34]: 7.98 µM
TGI [34]: 21.7 µM
GI50 [35]: 10.1 µM
TGI [35]: 22 µM
GI50 [36]: 14.8 µM
TGI [36]: 31.5 µM
GI50 [37]: 6.93 µM
TGI [37]: 20.6 µM
GI50 [38]: 2610 nM
TGI [38]: 6.08 µM
GI50 [39]: 2180 nM
TGI [39]: 6.77 µM
GI50 [40]: 10.9 µM
TGI [40]: 23.1 µM
GI50 [41]: 4.31 µM
TGI [41]: 18.4 µM
GI50 [42]: 11.6 µM
TGI [42]: 24.3 µM
GI50 [43]: 5.33 µM
TGI [43]: 20.5 µM
GI50 [44]: 9.99 µM
TGI [44]: 22.1 µM
GI50 [45]: 2480 nM
TGI [45]: 5.88 µM
GI50 [46]: 12.2 µM
TGI [46]: 25.1 µM
GI50 [47]: 6.5 µM
TGI [47]: 20.3 µM
GI50 [48]: 15.1 µM
TGI [48]: 30 µM
GI50 [49]: 11.4 µM
TGI [49]: 23.7 µM
GI50 [50]: 2940 nM
TGI [50]: 8.54 µM
GI50 [51]: 5.35 µM
TGI [51]: 18.4 µM
GI50 [52]: 4.68 µM
TGI [52]: 19.1 µM
GI50 [53]: 14.2 µM
TGI [53]: 27.6 µM
GI50 [54]: 5.98 µM
TGI [54]: 18.9 µM
GI50 [55]: 4.79 µM
TGI [55]: 18.1 µM
GI50 [56]: 11.7 µM
TGI [56]: 24.8 µM
GI50 [57]: 5.69 µM
TGI [57]: 19.8 µM
